Active and inactive are the calls of the source. The rule behind the calls is not given here.
Molecular target: T1, P2X purinoceptor 3 (Rattus norvegicus) (UniProt P49654)
T1 sequence (whole entry): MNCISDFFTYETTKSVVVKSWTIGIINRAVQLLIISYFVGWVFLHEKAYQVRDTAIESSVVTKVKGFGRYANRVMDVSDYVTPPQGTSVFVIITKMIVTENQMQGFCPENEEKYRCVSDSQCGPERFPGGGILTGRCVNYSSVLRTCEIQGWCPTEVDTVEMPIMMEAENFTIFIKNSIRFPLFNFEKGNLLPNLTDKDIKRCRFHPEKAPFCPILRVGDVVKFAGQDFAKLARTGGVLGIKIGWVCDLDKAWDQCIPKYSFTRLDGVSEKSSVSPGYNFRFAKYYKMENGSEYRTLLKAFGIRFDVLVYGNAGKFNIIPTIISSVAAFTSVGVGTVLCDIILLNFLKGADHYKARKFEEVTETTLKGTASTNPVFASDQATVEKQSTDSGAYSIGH
Assay: Antagonist activity against rat P2X3 receptor expressed in CHOK1 cells assessed as inhibition of alpha,beta-meATP-induced calcium response incubated for 20 mins by Fluo-3AM dye based FLIPR assay
Assay type: functional, cell-based
Details: CHO-K1

Row | Compound | antagonist activity call (active/inactive)
1 | CC(=O)N1CCN(C[C@@H](C)NC(=O)c2cc(-c3nccs3)cc(-c3ccc(C)cc3F)c2)CC1 | Active
2 | Cc1ccc(-c2cc(C(=O)NCc3ccc(C)nn3)cc(-c3scnc3C(C)C)c2)nc1 | Active
3 | COCC(C)NC(=O)c1cc(-c2cncs2)cc(-c2ccc(F)cc2Cl)c1 (stereo not given) | Active
4 | CCC(C)(C)NC(=O)c1cc(-c2ccc(C)cc2)cc(-c2nccs2)c1 | Active
5 | Cc1ccc(-c2cc(C(=O)NC(C)(C)c3ccccc3)cc(-c3nccs3)c2)cc1 | Active
6 | C[C@H](CN1CCN(S(C)(=O)=O)CC1)NC(=O)c1cc(-c2nccs2)cc(-c2ccc(F)cc2Cl)c1 | Active
7 | COCC(C)NC(=O)c1cc(-c2ccc(C)cc2)cc(-c2ccns2)c1 (stereo not given) | Active
8 | COCC(C)NC(=O)c1cc(-c2cncs2)cc(-c2ccc(F)cc2F)c1 (stereo not given) | Active
9 | COc1ccc([C@@H](C)NC(=O)c2cc(-c3ccc(C)cc3)cc(-c3nccs3)c2)cc1 | Active
10 | Cc1ccc(-c2cc(C(=O)NCc3ccc(C)nn3)cc(-c3ncsc3C(C)C)c2)nc1 | Active
11 | COCC(C)NC(=O)c1cc(-c2ccc(C)cc2)cc(-c2ncc(C(=O)N(C)C)s2)c1 (stereo not given) | Active
12 | Cc1ccc(-c2cc(C(=O)NC(C)c3ccco3)cc(-c3nccs3)c2)cc1 (stereo not given) | Active
13 | COCC(C)NC(=O)c1cc(-c2ccc(C)cc2)cc(-c2ncc(C(=O)NC(C)C)s2)c1 (stereo not given) | Active
14 | Cc1ccc(-c2cc(C(=O)NC(C)c3cnccn3)cc(-c3nccs3)c2)cc1 (stereo not given) | Active
15 | Cc1ccc(-c2cc(C(=O)N[C@H](C)CO)cc(-c3nccs3)c2)c(F)c1 | Active
16 | CCCc1ncoc1-c1cc(C(=O)NCc2cnc(C)cn2)cc(-c2ccc(C)cn2)c1 | Active
17 | Cc1ccc(-c2cc(C(=O)NCCOCCO)cc(-c3nccs3)c2)cc1 | Active
18 | Cc1ccc(-c2cc(C(=O)N[C@H](C)CN3CCN(S(C)(=O)=O)CC3)cc(-c3nccs3)c2)c(F)c1 | Active
19 | CNC(=O)c1cnc(-c2cc(C(=O)NC(C)COC)cc(-c3ccc(C)cc3)c2)s1 (stereo not given) | Active
20 | COCC(C)NC(=O)c1cc(-c2ccc(C)cc2)cc(-c2cnco2)c1 (stereo not given) | Active
21 | C[C@H](CN1CCN(S(C)(=O)=O)CC1)NC(=O)c1cc(-c2cncs2)cc(-c2ccc(F)cc2Cl)c1 | Active
22 | Cc1ccc(-c2cc(C(=O)NC(C)c3cnccn3)cc(-c3nccs3)c2)c(F)c1 (stereo not given) | Active
23 | CCc1ncsc1-c1cc(C(=O)NCc2cnc(C)cn2)cc(-c2ccc(C)cc2)c1 | Active
24 | Cc1ccc(-c2cc(C(=O)N[C@H](C)CN3CCN(S(C)(=O)=O)CC3)cc(-c3cncs3)c2)c(F)c1 | Active
25 | COCC(C)NC(=O)c1cc(-c2ccc(C)cc2)cc(-c2nc3ccccc3s2)c1 (stereo not given) | Active
26 | Cc1ccc(-c2cc(C(=O)N[C@@H](C)CO)cc(-c3scnc3C(C)C)c2)nc1 | Active
27 | Cc1ccc(-c2cc(C(=O)NC(C)c3cnccn3)cc(-c3cncs3)c2)cc1 (stereo not given) | Active
28 | CCOC(=O)c1cnc(-c2cc(C(=O)NC(C)COC)cc(-c3ccc(C)cc3)c2)s1 (stereo not given) | Active

Now from value to compound:

Row | antagonist activity call (active/inactive) | Compound
29 | Active | COCC(C)NC(=O)c1cc(-c2ccc(C)cc2)cc(-c2scnc2C)c1 (stereo not given)
30 | Active | Cc1ccc(-c2cc(C(=O)N[C@H](C)CN3CCOCC3)cc(-c3nccs3)c2)c(F)c1
31 | Active | COCC(C)NC(=O)c1cc(-c2ccc(C)cc2)cc(-c2oncc2C)c1 (stereo not given)
32 | Active | Cc1ccc(-c2cc(C(=O)NC(C)c3cnccn3)cc(-c3scnc3C)c2)cc1 (stereo not given)
33 | Active | CC(=O)N1CCN(C[C@@H](C)NC(=O)c2cc(-c3ccc(C)cc3)cc(-c3scnc3C)c2)CC1
34 | Active | Cc1ccc(-c2cc(C(=O)NC(C)CO)cc(-c3scnc3C)c2)cc1 (stereo not given)
35 | Active | COCC(C)NC(=O)c1cc(-c2ccc(C)cc2)cc(-c2cncs2)c1 (stereo not given)
36 | Active | C[C@H](CN1CCOCC1)NC(=O)c1cc(-c2cncs2)cc(-c2ccc(F)cc2Cl)c1
37 | Active | COCC(C)NC(=O)c1cc(-c2ccc(C)cc2)cc(-c2cscn2)c1 (stereo not given)
38 | Active | CCC(C)NC(=O)c1cc(-c2ccc(C)cc2)cc(-c2nccs2)c1 (stereo not given)
39 | Active | Cc1ccc(-c2cc(C(=O)N[C@H](C)CO)cc(-c3nccs3)c2)cc1
40 | Active | Cc1ccc(-c2cc(C(=O)NC(C)CN(C)C)cc(-c3nccs3)c2)cc1 (stereo not given)
41 | Active | Cc1ccc(-c2cc(C(=O)N[C@H](C)CN3CCOCC3)cc(-c3scnc3C)c2)cc1
42 | Active | COC[C@H](C)NC(=O)c1cc(-c2ccc(C)cc2)cc(-c2scnc2C)c1
43 | Active | COCC(C)NC(=O)c1cc(-c2ccc(C)cc2)cc(-c2cocn2)c1 (stereo not given)
44 | Active | Cc1ccc(-c2cc(C(=O)N[C@H](C)CN3CCN(S(C)(=O)=O)CC3)cc(-c3nccs3)c2)cc1
45 | Active | Cc1ccc(-c2cc(C(=O)N[C@H](C)CN3CCOCC3)cc(-c3cncs3)c2)cc1
46 | Active | Cc1ccc(-c2cc(C(=O)N[C@H](C)CN3CCS(=O)(=O)CC3)cc(-c3scnc3C)c2)cc1
47 | Active | CC(=O)N1CCN(C[C@@H](C)NC(=O)c2cc(-c3ccc(C)cc3)cc(-c3nccs3)c2)CC1
48 | Active | CC(=O)N1CCN(C[C@@H](C)NC(=O)c2cc(-c3ccc(C)cc3)cc(-c3cncs3)c2)CC1
49 | Active | C[C@H](CN1CCOCC1)NC(=O)c1cc(-c2nccs2)cc(-c2ccc(F)cc2Cl)c1
50 | Active | COCC(C)NC(=O)c1cc(-c2ccc(C)cc2)cc(-c2nccs2)c1 (stereo not given)
51 | Active | Cc1ccc(-c2cc(C(=O)N[C@H](C)CN3CCN(S(C)(=O)=O)CC3)cc(-c3cncs3)c2)cc1
52 | Active | COCC(C)NC(=O)c1cc(-c2ccc(C)cc2)cc(-c2ncco2)c1 (stereo not given)
53 | Active | COC[C@@H](C)NC(=O)c1cc(-c2ccc(C)cc2)cc(-c2scnc2C)c1
54 | Active | COCC(C)NC(=O)c1cc(-c2ccc(C)cc2)cc(-c2ccno2)c1 (stereo not given)
55 | Active | Cc1ccc(-c2cc(C(=O)N[C@H](C)CN3CCOCC3)cc(-c3nccs3)c2)cc1

From ChEMBL document CHEMBL3714723, “Thiazole and oxazole-substituted arylamides as P2X3 and P2X2/3 antagonists” (2010)
